The values below come from patent publication US10821164B2, “Peptides for inducing Chagas disease responses” (SAINT LOUIS UNIVERSITY, priority 2015, dated 2020).

In experiment [1] the test system is T. cruzi. The conditions noted are these: children aged six to 12 years with chronic disease; cited from earlier work.
In experiment [2] the test system is CD8^+ T cells. Kind of experiment: IFN-γ ELISPOT after vaccination of HLA-A2 transgenic mice with peptide-pulsed mature dendritic cells. In kind it is cell-based, HLA-A2 HHDII transgenic mice. As to conditions: splenic CD8+ T cells four weeks after second peptide-pool pulsed mDC vaccination; stimulated overnight with spleen cells pulsed with individual peptide 5 μg/ml; FIG. 2A. From the text:
FIGS. 2A-C—Immunogenicity of predicted HLA-A2 restricted T. cruzi epitopes. HLA-A2 transgenic mice were vaccinated twice, two weeks apart with mature dendritic cells pulsed with functional TS (F-TS; FIG. 2A), Non-functional TS (NF-TS; FIG. 2B), or whole genome derived Non-TS peptide pools (FIG. 2C). One month later, CD8^+ T cells were isolated from control DC or peptide-pool pulsed DC vaccinated mice and stimulated overnight with APCs pulsed with individual F-TS, NF-TS, or Non-TS peptides in IFN-γ ELISPOT assays. Shown are mean±SE from representative experiments expressed as IFN-γ spot forming cells (SFC) per million CD8^+ T cells above DMSO control. Asterisks denote immunogenic peptides defined as responses greater than the mean+2 SE of all control CD8^+ T cell responses.
All animal studies were conducted in AAALAC accredited facilities and were approved by the Saint Louis University Institutional Animal Care and Use Committee. HLA-A2 HHDII transgenic mice were provided by Ted Hansen (Washington University) with permission from Marion Berard at the Institut Pasteur and were bred and housed under pathogen-free conditions throughout the inventors' studies (Pascolo et al., 1997). […]

Regarding `O=C(Cn1ccnc1[N+](=O)[O-])NCc1ccccc1` [benznidazole], in experiment [1], the cure rate result was “about 60%”. Regarding EVYSLVFARL [F-TS-2], in experiment [2], the “IFN-γ spot forming cells (SFC) per million CD8^+ T cells above DMSO control” value was 5,000 IFN-γ SFC/million CD8^+ T cells.
